From patent US20240182406A1, “COMPOUNDS AS SOLUBLE EPOXIDE HYDROLASE INHIBITORS” (UNIVERSITAT DE BARCELONA, priority 2021, published 2024)
Marks after values point to notes of the source that are not given here.

Tests used:
[1] = biological target: human sEH (Homo sapiens (Human), UniProt P34913); assay: In vitro determination of sEH inhibition activity (fluorescent assay, CMNPC substrate); format: biochemical; settings: purified recombinant human sEH, CMNPC 5 μM, 30° C., mean of triplicate
Description: Cyano(6-methoxynaphthalen-2-yl)methyl 2-(3-phenyloxiran-2-yl)methylcarbonate (CMNPC); cf. Morisseau, C.; Hammock, B. D. Measurement of soluble epoxide hydrolase (sEH) activity. Curr. Protoc. Toxicol.
The fluorescent assay was used with purified recombinant human or mouse sEH proteins. The enzymes were incubated at 30° C. with the inhibitors ([I]final=0.4-100,000 nM) for 5 min in 100 mM sodium phosphate buffer (200 μL, pH 7.4) containing 0.1 mg/mL of BSA and 1% of DMSO. The substrate (CMNPC) was then added ([S]final=5 μM). […] Results were obtained by regression analysis from a linear region of the curve.

[2] = In vitro determination of microsomal stability; format: in vitro ADME; settings: human microsomes, 37° C., samples at 0-60 min
Description: The human recombinant microsomes employed were purchased from Tebu-Xenotech. […] Samples (75 μL) were taken from each well at 0, 10, 20, 40 and 60 min and transferred to a plate containing 4° C. 75 μL acetonitrile and 30 μL of 0.5% formic acid in water were added for improving the chromatographic conditions. The plate was centrifuged (46000 g, 30 min) and supernatants were taken and analyzed in a UPLC-MS/MS (Xevo-TQD, Waters) by employing a BEH C18 column and an isocratic gradient of 0.1% formic acid in water:0.1% formic acid acetonitrile (60:40). The metabolic stability of the compounds was calculated from the logarithm of the remaining compounds at each of the time points studied.

[3] = tested on: CD1 mice; assay: Seizure assay (pentylenetetrazole, PTZ test); format: in vivo, mouse; settings: 5 mg/kg by gavage 1 h prior to PTZ 85 mg/Kg s.c., monitored 30 min
Description: Test compounds were dissolved in 20% hydroxypropyl-beta-cyclodextrin and concentration was calculated according to the animal weigh to reach the precise dose. Animals were housed in standard care facilities with a 12 hours light-dark cycle with free access to water and food.
To investigate the ability of compounds to cross the blood-brain barrier (BBB), a standard acute test involving the administration of pro-convulsant pentylenetetrazole (PTZ) was employed [Inceoglu et al, PLoS ONE, 2013, 8(12), e80922; WO 2015/148954 A1]. In the test, PTZ was administered at 85 mg/Kg by subcutaneous route, time to onset of first clonic seizure, average of clonic seizures, tonic seizure latency and lethality were monitored for 30 min. Vehicles or compounds were administered by gavage at 5 mg/kg 1 h prior to pro-convulsant.

human sEH, sequence (P34913 whole entry): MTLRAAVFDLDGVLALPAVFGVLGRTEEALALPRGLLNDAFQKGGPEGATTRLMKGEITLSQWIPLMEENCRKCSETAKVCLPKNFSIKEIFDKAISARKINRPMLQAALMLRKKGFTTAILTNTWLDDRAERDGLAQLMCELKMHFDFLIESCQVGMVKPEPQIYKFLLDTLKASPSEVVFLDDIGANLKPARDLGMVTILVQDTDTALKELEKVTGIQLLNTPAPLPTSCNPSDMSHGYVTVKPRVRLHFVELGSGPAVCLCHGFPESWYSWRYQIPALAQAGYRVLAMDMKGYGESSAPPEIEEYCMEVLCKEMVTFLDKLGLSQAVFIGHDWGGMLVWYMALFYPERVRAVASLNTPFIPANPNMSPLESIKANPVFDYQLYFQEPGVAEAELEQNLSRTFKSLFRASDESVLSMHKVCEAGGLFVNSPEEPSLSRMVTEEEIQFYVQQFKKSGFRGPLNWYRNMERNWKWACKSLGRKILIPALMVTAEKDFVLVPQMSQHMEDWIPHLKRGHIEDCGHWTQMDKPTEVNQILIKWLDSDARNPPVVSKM

With `O=C(NC12CC3CC(F)(CC(C1)c1ccccc13)C2)N[C@H]1CC[C@H](Oc2ccc(C(=O)O)cc2)CC1` [Example 1, 4-[((1r,4r)-4-(3-(9-fluoro-5,6,8,9,10,11-hexahydro-7H-5,9:7,11-dimethanobenzo[9]annulen-7-yl)ureido)cyclohexyl)oxy]benzoic acid] the IC50 [1] was 500 pM and the “Microsomal stability (% remanent)” value [2] was 77%.
In the case of `COc1cc2c(cc1OC)C1CC3(F)CC2CC(NC(=O)NC2CCN(C(=O)C4CCOCC4)CC2)(C1)C3` [Example 5, 1-(9-fluoro-2,3-dimethoxy-5,6,8,9,10,11-hexahydro-7H-5,9:7,11-dimethanobenzo[9]annulen-7-yl)-3-(1-(tetrahydro-2H-pyran-4-carbonyl)piperidin-4-yl)urea], the IC50 [1] is reported as 600 pM and the “Microsomal stability (% remanent)” value [2] is reported as 100%.
In the case of `COc1cc2c(cc1OC)C1CC3(Cl)CC2CC(NC(=O)NC2CCN(C(=O)C4CCOCC4)CC2)(C1)C3` [Example 6, 1-(9-chloro-2,3-dimethoxy-5,6,8,9,10,11-hexahydro-7H-5,9:7,11-dimethanobenzo[9]annulen-7-yl)-3-(1-(tetrahydro-2H-pyran-4-carbonyl)piperidin-4-yl)urea], the IC50 [1] is reported as 400 pM, the “Microsomal stability (% remanent)” value [2] is reported as 42% and the melting point is reported as 147 to 150 °C.
In the case of `O=C(NC1CCN(c2ccc(C(=O)O)cc2)CC1)NC12CC3CC(F)(CC(C1)c1ccccc13)C2` [Example 13, 4-(4-(3-(9-fluoro-5,6,8,9,10,11-hexahydro-7H-5,9:7,11-dimethanobenzo[9]annulen-7-yl)ureido)piperidin-1-yl)benzoic acid], the IC50 [1] is reported as 500 pM, the “Microsomal stability (% remanent)” value [2] is reported as 100% and the melting point is reported as 267 to 268 °C.
With `O=C(NC1CCN(c2ccc(C(=O)O)cc2)CC1)NC12CC3CC(Cl)(CC(C1)c1ccccc13)C2` [Example 14, 4-(4-(3-(9-chloro-5,6,8,9,10,11-hexahydro-7H-5,9:7,11-dimethanobenzo[9]annulen-7-yl)ureido)piperidin-1-yl)benzoic acid] the IC50 [1] was 400 pM, the “Microsomal stability (% remanent)” value [2] was 99% and the melting point was 226 to 227 °C.
With `COC(=O)c1ccc(C(=O)N2CCC(NC(=O)NC34CC5CC(Cl)(CC(C3)c3ccccc35)C4)CC2)cc1` [Example 15, methyl 4-(4-(3-(9-chloro-5,6,8,9,10,11-hexahydro-7H-5,9:7,11-dimethanobenzo[9]annulen-7-yl)ureido)piperidine-1-carbonyl)benzoate] the melting point was 128 to 129 °C.
In the case of `O=C(NC1CCN(C(=O)c2ccc(C(=O)O)cc2)CC1)NC12CC3CC(Cl)(CC(C1)c1ccccc13)C2` [Example 16, 4-(4-(3-(9-chloro-5,6,8,9,10,11-hexahydro-7H-5,9:7,11-dimethanobenzo[9]annulen-7-yl)ureido)piperidine-1-carbonyl)benzoic acid], the IC50 [1] is reported as 400 pM, the “Microsomal stability (% remanent)” value [2] is reported as 88% and the melting point is reported as 200 °C (dec.).
In the case of `CC(=O)N1CCC(NC(=O)NC23CC4CC(C)(CC(C2)c2ccccc24)C3)CC1` [Example C1, 1-(1-acetylpiperidin-4-yl)-3-(9-methyl-5,6,8,9,10,11-hexahydro-7H-5,9:7,11-dimethanobenzo[9]annulen-7-yl)urea], the “Microsomal stability (% remanent)” value [2] is reported as 1%.
With `CC12CC3CC(NC(=O)NC4C[C@H]5CC[C@@H](C4)N5Cc4ccccc4)(CC(C1)c1ccccc13)C2` (stereo partly drawn) [Example C2, 1-((1R,3s,5S)-8-benzyl-8-azabicyclo[3.2.1]octan-3-yl)-3-(9-methyl-5,6,8,9,10,11-hexahydro-7H-5,9:7,11-dimethanobenzo[9]annulen-7-yl)urea] the IC50 [1] was 4700 pM and the “Microsomal stability (% remanent)” value [2] was 0.1%.
For `CC12CC3CC(NC(=O)Nc4ccc(F)c(F)c4F)(CC(C1)c1ccccc13)C2` [Example C4, 1-(9-methyl-6,7,8,9,10,11-hexahydro-5H-5,9:7,11-dimethanobenzo[9]annulen-7-yl)-3-(2,3,4-trifluorophenyl)urea], the IC50 [1] was 1100 pM and the “Microsomal stability (% remanent)” value [2] was 7%.
In the case of `CC12CC3CC(NC(=O)NC4CCN(Cc5ccccc5)CC4)(CC(C1)c1ccccc13)C2` [Example C5, 1-(1-benzylpiperidin-4-yl)-3-(9-methyl-5,6,8,9,10,11-hexahydro-7H-5,9:7,11-dimethanobenzo[9]annulen-7-yl)urea], the IC50 [1] is reported as 1500 pM and the “Microsomal stability (% remanent)” value [2] is reported as 0.1%.
In the case of `CC(=O)N1CCC(NC(=O)NC23CC4CC(C)(CC(C2)c2cc(F)ccc24)C3)CC1` (centres unmarked) [Example C8, 1-(1-acetylpiperidin-4-yl)-3-(2-fluoro-9-methyl-5,6,8,9,10,11-hexahydro-7H-5,9:7,11-dimethanobenzo[9]annulen-7-yl)urea], the IC50 [1] is reported as 900 pM and the “Microsomal stability (% remanent)” value [2] is reported as 22%.
For `CC(=O)N1CCC(NC(=O)NC23CC4CC(C)(CC(C2)c2c(F)cccc24)C3)CC1` (centres unmarked) [Example C9, 1-(1-acetylpiperidin-4-yl)-3-(1-fluoro-9-methyl-5,6,8,9,10,11-hexahydro-7H-5,9:7,11-dimethanobenzo[9]annulen-7-yl)urea], the IC50 [1] was 900 pM and the “Microsomal stability (% remanent)” value [2] was 16%.
In the case of `COc1ccc2c(c1)C1CC3(C)CC2CC(NC(=O)NC2CCN(C(C)=O)CC2)(C1)C3` (centres unmarked) [Example C10, 1-(1-acetylpiperidin-4-yl)-3-(2-methoxy-9-methyl-5,6,8,9,10,11-hexahydro-7H-5,9:7,11-dimethanobenzo[9]annulen-7-yl)urea], the IC50 [1] is reported as 1200 pM and the “Microsomal stability (% remanent)” value [2] is reported as 33%.
For `CC(=O)c1ccc(N2CCC(NC(=O)NC34CC5CC(C)(CC(C3)c3ccccc35)C4)CC2)cc1` [Example C12, 1-(1-(4-acetylphenyl)piperidin-4-yl)-3-(9-methyl-5,6,8,9,10,11-hexahydro-7H-5,9:7,11-dimethanobenzo[9]annulen-7-yl)urea], the IC50 [1] was 2900 pM and the “Microsomal stability (% remanent)” value [2] was 0.7%.
In the case of `CCC(=O)N1CCC(NC(=O)Nc2ccc(OC(F)(F)F)cc2)CC1` [TPPU, N-[1-(1-Oxopropyl)-4-piperidinyl]-N′-[4-(trifluoromethoxy)phenyl]urea, reference compound], the Average clonic seizure [3] is reported as 3.67, the “Mean time to clonic seizure latency” value [3] is reported as 605.33 s and the “Protected from tonic/total (Mortality)” value [3] is reported as 5/6****.
